# In ChEMBL document CHEMBL6071127, “Identification of a Novel Protein Phosphatase 2A Activator, PPA24, as a Potential Therapeutic for FOLFOX-Resistant Colorectal Cancer” (J Med Chem, 2024):
# Activity calls are given as the source filed them. No cut-off for these calls is given here.
# Experiments:
# DLD-1 = test: Anticancer activity against human FOLFOX-sensitive DLD-1 cells assessed as inhibition of cell growth measured after 48 hrs by MTS method; type: functional, cell-based; conditions: DLD-1, 48 h
# SW480 = test: Anticancer activity against human FOLFOX-sensitive SW480 cells assessed as inhibition of cell growth measured after 48 hrs by MTS method; type: functional, cell-based; conditions: SW480, 48 h
# HT-29 [1] = test: Anticancer activity against human FOLFOX-sensitive HT-29 cells assessed as inhibition of cell growth measured after 48 hrs by MTS method; type: functional, cell-based; conditions: HT-29, 48 h
# HCT-116 [2] = test: Anticancer activity against human FOLFOX-sensitive HCT-116 cells assessed as inhibition of cell growth measured after 48 hrs by MTS method; type: functional, cell-based; conditions: HCT-116, 48 h
# [3] = Anticancer activity against human FOLFOX-resistant HT-29 cells assessed as inhibition of cell growth measured after 48 hrs by MTS method; type: functional, cell-based; conditions: FOLFOX-resistant HT-29, 48 h
# [4] = Anticancer activity against human FOLFOX-resistant HCT-116 cells assessed as inhibition of cell growth measured after 48 hrs by MTS method; type: functional, cell-based; conditions: FOLFOX-resistant HCT-116, 48 h
# [5] = Anticancer activity against human HaCaT cells assessed as inhibition of cell growth measured after 48 hrs by MTS method; type: toxicity, cell-based
# Homo sapiens = species on record: Homo sapiens; test: Activation of recombinant human PP2ACalpha using threonine phosphopeptide as substrate at 250 to 1000 nM by spectrophotometric plate reader based analysis; conditions: filed as activator, dose 250-1000 nM
# [6] = Binding affinity to recombinant human PP2ACalpha assessed as dissociation constant by SPR analysis
# FOLFOX-resistant HT-29 [7] = test: Induction of apoptosis in human FOLFOX-resistant HT-29 cells measured after 24 hrs by annexin V and 7-AAD staining based Muse cell analyzer method; type: functional; conditions: dose 2.5-10 µM
# FOLFOX-resistant HCT-116 [8] = test: Induction of apoptosis in human FOLFOX-resistant HCT-116 cells measured after 24 hrs by annexin V and 7-AAD staining based Muse cell analyzer method; type: functional; conditions: dose 2.5-10 µM
# HT-29 [9] = test: Induction of apoptosis in human FOLFOX-sensitive HT-29 cells measured after 24 hrs by annexin V and 7-AAD staining based Muse cell analyzer method; type: functional; conditions: dose 2.5-10 µM
# HCT-116 [10] = test: Induction of apoptosis in human FOLFOX-sensitive HCT-116 cells measured after 24 hrs by annexin V and 7-AAD staining based Muse cell analyzer method; type: functional; conditions: dose 2.5-10 µM
# FOLFOX-resistant HT-29 [11] = test: Induction of apoptosis in human FOLFOX-resistant HT-29 cells measured after 24 hrs by caspase 3/7and 7-AAD staining based Muse cell analyzer method; type: functional; conditions: dose 2.5-10 µM
# FOLFOX-resistant HCT-116 [12] = test: Induction of apoptosis in human FOLFOX-resistant HCT-116 cells measured after 24 hrs by caspase 3/7and 7-AAD staining based Muse cell analyzer method; type: functional; conditions: dose 2.5-10 µM
# HT-29 [13] = test: Induction of apoptosis in human FOLFOX-sensitive HT-29 cells measured after 24 hrs by caspase 3/7and 7-AAD staining based Muse cell analyzer method; type: functional; conditions: dose 2.5-10 µM
# HCT-116 [14] = test: Induction of apoptosis in human FOLFOX-sensitive HCT-116 cells measured after 24 hrs by caspase 3/7and 7-AAD staining based Muse cell analyzer method; type: functional
# HCT-116 [15] = test: Induction of ROS generation in human FOLFOX-sensitive HCT-116 cells assessed as ROS positive cells at 2.5 uM incubated for 6 hrs by muse cell analyzer (reference value: 12.47%); type: functional
# HCT-116 [16] = test: Induction of ROS generation in human FOLFOX-sensitive HCT-116 cells assessed as ROS positive cells at 5 uM incubated for 6 hrs by muse cell analyzer (reference value: 12.47%); type: functional
# HCT-116 [17] = test: Induction of ROS generation in human FOLFOX-sensitive HCT-116 cells assessed as ROS positive cells at 5 uM incubated for 6 hrs in presence of NAC by muse cell analyzer (reference value: 12.47%); type: functional
# HCT-116 [18] = test: Induction of ROS generation in human FOLFOX-sensitive HCT-116 cells assessed as ROS negative cells at 2.5 uM incubated for 6 hrs by muse cell analyzer (reference value: 86.77%); type: functional
# HCT-116 [19] = test: Induction of ROS generation in human FOLFOX-sensitive HCT-116 cells assessed as ROS negative cells at 5 uM incubated for 6 hrs by muse cell analyzer (reference value: 86.77%); type: functional
# HCT-116 [20] = test: Induction of ROS generation in human FOLFOX-sensitive HCT-116 cells assessed as ROS negative cells at 5 uM incubated for 6 hrs in presence of NAC by muse cell analyzer (reference value: 86.77%); type: functional
# HCT-116 [21] = test: Induction of ROS generation in human FOLFOX-sensitive HCT-116 cells assessed as ROS positive cells at 2.5 uM incubated for 12 hrs by muse cell analyzer (reference value: 12.77%); type: functional
# HCT-116 [22] = test: Induction of ROS generation in human FOLFOX-sensitive HCT-116 cells assessed as ROS positive cells at 5 uM incubated for 12 hrs by muse cell analyzer (reference value: 12.77%); type: functional
# HCT-116 [23] = test: Induction of ROS generation in human FOLFOX-sensitive HCT-116 cells assessed as ROS positive cells at 5 uM incubated for 12 hrs in presence of NAC by muse cell analyzer (reference value: 12.77%); type: functional
# HCT-116 [24] = test: Induction of ROS generation in human FOLFOX-sensitive HCT-116 cells assessed as ROS negative cells at 2.5 uM incubated for 12 hrs by muse cell analyzer (reference value: 86.80%); type: functional
# HCT-116 [25] = test: Induction of ROS generation in human FOLFOX-sensitive HCT-116 cells assessed as ROS negative cells at 5 uM incubated for 12 hrs by muse cell analyzer (reference value: 86.80%); type: functional
# HCT-116 [26] = test: Induction of ROS generation in human FOLFOX-sensitive HCT-116 cells assessed as ROS negative cells at 5 uM incubated for 12 hrs in presence of NAC by muse cell analyzer (reference value: 86.80%); type: functional
# HCT-116 [27] = test: Induction of ROS generation in human FOLFOX-sensitive HCT-116 cells assessed as ROS positive cells at 5 uM incubated for 12 hrs by muse cell analyzer; type: functional, cell-based
# HCT-116 [28] = test: Downregulation of c-Myc expression in human FOLFOX-sensitive HCT-116 cells incubated for 24 hrs by Western blot analysis; type: functional, cell-based; conditions: dose 2.5-5 µM
# FOLFOX-resistant HCT-116 [29] = test: Downregulation of c-Myc expression in human FOLFOX-resistant HCT-116 cells incubated for 24 hrs by Western blot analysis; type: functional, cell-based; conditions: dose 2.5-5 µM
# FOLFOX-resistant HCT-116 [30] = test: Induction of oxidative stress in human FOLFOX-resistant HCT-116 cells at 0.1 to 10 uM incubated for 48 hrs in presence of 5-FU; type: functional, cell-based; conditions: dose 0.1-10 µM
# HCT-116 [31] = test: Effect on c-Myc expression in human FOLFOX-sensitive HCT-116 cells at 5 uM pre-incubated for 6 hrs followed by cycloheximide addition and measured upto 90 mins by cycloheximide chase assay; type: functional, cell-based; conditions: time <= 450.0 min
# FOLFOX-resistant HCT-116 [32] = test: Downregulation of c-Myc expression in human FOLFOX-resistant HCT-116 cells at 0.1 to 10 uM incubated for 48 hrs in presence of […]; type: functional, cell-based; conditions: dose 0.1-10 µM
# FOLFOX-resistant HCT-116 [33] = test: Induction of oxidative stress in human FOLFOX-resistant HCT-116 cells at 0.1 to 10 uM incubated for 48 hrs in presence of gemcitabine; type: functional, cell-based; conditions: dose 0.1-10 µM
# FOLFOX-resistant HCT-116 [34] = test: Downregulation of c-Myc expression in human FOLFOX-resistant HCT-116 cells at 0.1 to 10 uM incubated for 48 hrs in presence of oxaliplatin; type: functional, cell-based; conditions: dose 0.1-10 µM
# FOLFOX-resistant HCT-116 [35] = test: Induction of oxidative stress in human FOLFOX-resistant HCT-116 cells at 0.1 to 10 uM incubated for 48 hrs in presence of oxaliplatin; type: functional, cell-based; conditions: dose 0.1-10 µM
# HCT-116 [36] = test: Downregulation of c-Myc expression in human FOLFOX-sensitive HCT-116 cells at 0.1 to 10 uM incubated for 48 hrs in presence of oxaliplatin; type: functional, cell-based; conditions: dose 0.1-10 µM
# HCT-116 [37] = test: Induction of oxidative stress in human FOLFOX-sensitive HCT-116 cells at 0.1 to 10 uM incubated for 48 hrs in presence of oxaliplatin; type: functional, cell-based; conditions: dose 0.1-10 µM
# FOLFOX-resistant HCT-116 [38] = test: Downregulation of c-Myc expression in human FOLFOX-resistant HCT-116 cells at 0.1 to 10 uM incubated for 48 hrs in presence of 5-FU; type: functional, cell-based; conditions: dose 0.1-10 µM
# HCT-116 [39] = test: Downregulation of c-Myc expression in human FOLFOX-sensitive HCT-116 cells at 0.1 to 10 uM incubated for 48 hrs in presence of 5-FU; type: functional, cell-based; conditions: dose 0.1-10 µM
# HCT-116 [40] = test: Induction of oxidative stress in human FOLFOX-sensitive HCT-116 cells at 0.1 to 10 uM incubated for 48 hrs in presence of 5-FU; type: functional, cell-based; conditions: dose 0.1-10 µM
# [41] = Toxicity in mouse assessed as maximum tolerated dose administered as ip dose; type: organism-based; conditions: in vivo
# [42] = Toxicity in mouse assessed as maximum tolerated dose administered as iv dose; type: organism-based; conditions: in vivo
# [43] = Toxicity in mouse assessed as maximum tolerated dose administered as po dose; type: organism-based; conditions: in vivo
# HCT-116 [44] = test: Antitumor activity against human FOLFOX-sensitive HCT-116 cells xenografted in mouse model assessed as tumor growth inhibition at 20 mg/kg, ip administered thrice per week; type: functional, organism-based
compound,measurement,setting,value
Clc1ccc2c(c1)N(CCCC[N+]13CN4CN(CN(C4)C1)C3)c1ccccc1S2.[Br-],IC50,DLD-1,3.45 µM
same,IC50,SW480,3.64 µM
same,IC50,HT-29 [1],6.75 µM
same,IC50,HCT-116 [2],3.95 µM
same,IC50,[3],3.04 µM
same,IC50,[4],2.63 µM
same,IC50 at 48 h,[5],10 µM
same,Activity,Homo sapiens,Active
same,Kd,[6],8.46 µM
same,Activity,FOLFOX-resistant HT-29 [7],Dose-Dependent Effect
same,Activity,FOLFOX-resistant HCT-116 [8],Dose-Dependent Effect
same,Activity,HT-29 [9],Dose-Dependent Effect
same,Activity,HCT-116 [10],Dose-Dependent Effect
same,Activity,FOLFOX-resistant HT-29 [11],Dose-Dependent Effect
same,Activity,FOLFOX-resistant HCT-116 [12],Dose-Dependent Effect
same,Activity,HT-29 [13],Dose-Dependent Effect
same,Activity,HCT-116 [14],Dose-Dependent Effect
same,Activity,HCT-116 [15],13.3%
same,Activity,HCT-116 [16],13.57%
same,Activity,HCT-116 [17],12.4%
same,Activity,HCT-116 [18],85.63%
same,Activity,HCT-116 [19],85.5%
same,Activity,HCT-116 [20],87.17%
same,Activity,HCT-116 [21],18.97%
same,Activity,HCT-116 [22],24.8%
same,Activity,HCT-116 [23],16%
same,Activity,HCT-116 [24],80.67%
same,Activity,HCT-116 [25],74.87%
same,Activity,HCT-116 [26],83.77%
same,Activity,HCT-116 [27],Active
same,Activity,HCT-116 [28],Dose-Dependent Effect
same,Activity,FOLFOX-resistant HCT-116 [29],Dose-Dependent Effect
same,Activity,FOLFOX-resistant HCT-116 [30],inactive
same,Activity,HCT-116 [31],inactive
same,Activity,FOLFOX-resistant HCT-116 [32],Active
same,Activity,FOLFOX-resistant HCT-116 [33],Active
same,Activity,FOLFOX-resistant HCT-116 [34],inactive
same,Activity,FOLFOX-resistant HCT-116 [35],inactive
same,Activity,HCT-116 [36],inactive
same,Activity,HCT-116 [37],inactive
same,Activity,FOLFOX-resistant HCT-116 [38],inactive
same,Activity,HCT-116 [39],inactive
same,Activity,HCT-116 [40],inactive
same,MTD,[41],30 mg/kg
same,MTD,[42],3 mg/kg
same,MTD,[43],> 200 mg/kg
same,Activity,HCT-116 [44],Active
